{"source": "patent US11547674B2", "about": "“Protein-polymer hybrid biomaterials” (The Regents of the University of California, priority 2018, dated 2023)", "origin": "cited, not measured here", "target": "Bacillus stearothermophillus LDH (Geobacillus stearothermophilus, UniProt P00344)", "sequence (P00344 whole entry)": "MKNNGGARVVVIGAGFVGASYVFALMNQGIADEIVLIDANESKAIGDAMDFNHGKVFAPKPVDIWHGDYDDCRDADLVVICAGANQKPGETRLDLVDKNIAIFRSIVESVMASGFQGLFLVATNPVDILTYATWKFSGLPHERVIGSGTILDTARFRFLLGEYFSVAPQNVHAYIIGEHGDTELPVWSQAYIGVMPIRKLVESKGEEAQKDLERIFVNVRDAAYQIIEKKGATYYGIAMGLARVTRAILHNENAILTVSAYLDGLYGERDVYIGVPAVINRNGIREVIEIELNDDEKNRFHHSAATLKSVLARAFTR", "details": "read-out: Km of oxamate for LDH", "data": [{"smiles": "NC(=O)C(=O)O", "note": "[oxamate]", "values": [{"measurement": "Km", "value": 600, "unit": "µM"}]}]}
